Assays:
[1] = system: Botryotinia fuckeliana (Botrytis cinerea); experiment: Botryotinia fuckeliana (Botrytis cinerea) / liquid culture (gray mould); type: cell-based; conditions: 72 h, read-out: control of Botryotinia fuckeliana
[2] = system: Fusarium culmorum; experiment: microbe, parasite or virus in culture; type: cell-based; conditions: read-out: control of Fusarium culmorum
[3] = system: Glomerella lagenarium (Colletotrichum lagenarium); experiment: Glomerella lagenarium (Colletotrichum lagenarium) / liquid culture (anthracnose); type: cell-based; conditions: Colletotrichum orbiculare; read-out: control of Glomerella lagenarium
[4] = system: Gaeumannomyces graminis; experiment: Gaeumannomyces graminis / liquid culture (take-all of cereals); type: cell-based; conditions: read-out: control of Gaeumannomyces graminis
[5] = system: Monographella nivalis (Microdochium nivale); experiment: Monographella nivalis (Microdochium nivale) / liquid culture (foot rot cereals); type: cell-based; conditions: 96 h, read-out: control of Monographella nivalis
[6] = system: Mycosphaerella graminicola (Septoria tritici); experiment: Mycosphaerella graminicola (Septoria tritici) / liquid culture (Septoria blotch); type: cell-based; conditions: Zymoseptoria tritici; read-out: control of Mycosphaerella graminicola
[7] = system: Fusarium culmorum; experiment: whole plant or invertebrate; type: in vivo; conditions: in Triticum aestivum, read-out: control of Fusarium culmorum
[8] = system: Magnaporthe grisea (Pyricularia oryzae); experiment: microbe, parasite or virus in culture; type: cell-based; conditions: 72 h, read-out: control of Magnaporthe grisea
[9] = system: Sclerotinia sclerotiorum; experiment: Sclerotinia sclerotiorum / liquid culture (cottony rot); conditions: 72 h, read-out: control of Sclerotinia sclerotiorum
Procedure: Sclerotinia sclerotiorum/Liquid Culture (Cottony Rot)
Mycelia fragments of a newly grown liquid culture of the fungus are directly mixed into nutrient broth (Vogels broth). After placing a (DMSO) solution of test compound into a microtiter plate (96-well format) the nutrient broth containing the fungal material is added. The test plates are incubated at 24° C. and the inhibition of growth is determined photometrically 3-4 days after application.

Row | Compound | inhibition of growth at 200 ppm [1] [%] | inhibition of growth at 200 ppm [2] [%] | inhibition of growth at 200 ppm [3] [%] | inhibition of growth at 200 ppm [4] [%] | inhibition of growth at 200 ppm [5] [%] | inhibition of growth at 200 ppm [6] [%] | pest or weed control at 200 ppm [7] [%] | inhibition of growth at 200 ppm [8] [%] | melting point [°C] | inhibition of growth at 20 ppm [9] [%]
1 | CC(C)(Cc1ccccc1F)NC(=O)c1cnc2ccccc2c1 [Compound E-2, N-[2-(2-fluorophenyl)-1,1-dimethyl-ethyl]quinoline-3-carboxamide] | ≥ 80 | ≥ 80 | ≥ 80 | ≥ 80 | ≥ 80 | ≥ 80 |  |  |  | 
2 | CC(C)CC(C)(Cc1ccccc1)NC(=O)c1cnc2c(F)cccc2c1 (centres unmarked) [Compound E-6, N-(1-benzyl-1,3-dimethyl-butyl)-8-fluoro-quinoline-3-carboxamide] | ≥ 80 | ≥ 80 | ≥ 80 | ≥ 80 | ≥ 80 | ≥ 80 | ≥ 80 | ≥ 80 | 110 to 112 | ≥ 80
3 | CC(C)CC(C)(Cc1cccc(F)c1)NC(=O)c1cnc2c(F)cccc2c1 (centres unmarked) [Compound E-26, 8-fluoro-N-[1-[(3-fluorophenyl)methyl]-1,3-dimethyl-butyl]quinoline-3-carboxamide] | ≥ 80 | ≥ 80 | ≥ 80 | ≥ 80 | ≥ 80 |  | ≥ 80 | ≥ 80 | 45 to 47 | ≥ 80
4 | CC(C)(C)CC(Cc1ccccc1)NC(=O)c1cnc2c(F)cccc2c1 (centres unmarked) [Compound E-28, N-(1-benzyl-3,3-dimethyl-butyl)-8-fluoro-quinoline-3-carboxamide] | ≥ 80 | ≥ 80 | ≥ 80 | ≥ 80 | ≥ 80 |  | ≥ 80 | ≥ 80 | 178 to 180 | ≥ 80
5 | C=C(C)CC(C)(Cc1ccccc1)NC(=O)c1cnc2c(F)cccc2c1 (centres unmarked) [Compound E-35, N-(1-benzyl-1,3-dimethyl-but-3-enyl)-8-fluoro-quinoline-3-carboxamide] | ≥ 80 | ≥ 80 | ≥ 80 | ≥ 80 | ≥ 80 |  | ≥ 80 | ≥ 80 | 115 to 117 | ≥ 80
6 | C=C(C)CC(C)(Cc1ccccc1)NC(=O)c1cnc2c(F)c(F)ccc2c1 (centres unmarked) [Compound E-55, N-(1-benzyl-1,3-dimethyl-but-3-enyl)-7,8-difluoro-quinoline-3-carboxamide] | ≥ 80 | ≥ 80 | ≥ 80 |  | ≥ 80 | ≥ 80 | ≥ 80 | ≥ 80 | 94 to 96 | 
7 | CC(C)(O)CC(C)(Cc1ccccc1)NC(=O)c1cnc2c(F)cccc2c1 (centres unmarked) [Compound E-58, N-(1-benzyl-3-hydroxy-1,3-dimethyl-butyl)-8-fluoro-quinoline-3-carboxamide] | ≥ 80 | ≥ 80 | ≥ 80 |  | ≥ 80 | ≥ 80 | ≥ 80 | ≥ 80 |  | 
8 | Cc1cccc2cc(C(=O)NC(C)(Cc3ccccc3)CC(F)(F)F)cnc12 (centres unmarked) [Compound E-61, N-(1-benzyl-3,3,3-trifluoro-1-methyl-propyl)-8-methyl-quinoline-3-carboxamide] | ≥ 80 | ≥ 80 | ≥ 80 |  | ≥ 80 | ≥ 80 | ≥ 80 | ≥ 80 | 120 to 123 | 
9 | CC(C)C[C@@](C)(Cc1ccccc1)NC(=O)c1cnc2c(F)cccc2c1 [Compound F-2, N-[(1S)-1-benzyl-1,3-dimethyl-butyl]-8-fluoro-quinoline-3-carboxamide] | ≥ 80 | ≥ 80 | ≥ 80 | ≥ 80 | ≥ 80 | ≥ 80 | ≥ 80 |  |  | ≥ 80
10 | CC(C)C[C@H](Cc1ccccc1)NC(=O)c1cnc2c(F)cccc2c1 [Compound F-3, N-[(1R)-1-benzyl-3-methyl-butyl]-8-fluoro-quinoline-3-carboxamide] | ≥ 80 | ≥ 80 | ≥ 80 | ≥ 80 |  | ≥ 80 | ≥ 80 |  |  | ≥ 80
11 | CC(C)C[C@@](C)(Cc1ccccc1)NC(=O)c1cnc2ccccc2c1 [Compound F-6, N-[(1S)-1-benzyl-1,3-dimethyl-butyl]quinoline-3-carboxamide] | ≥ 80 | ≥ 80 | ≥ 80 | ≥ 80 |  | ≥ 80 |  |  |  | 
12 | CC(C)(F)C[C@](C)(Cc1ccccc1)NC(=O)c1cnc2c(F)cccc2c1 [Compound F-24, N-[(1S)-1-benzyl-3-fluoro-1,3-dimethyl-butyl]-8-fluoro-quinoline-3-carboxamide] | ≥ 80 | ≥ 80 | ≥ 80 |  | ≥ 80 | ≥ 80 | ≥ 80 |  |  | 
13 | CC(F)(F)C[C@@](C)(Cc1ccccc1)NC(=O)c1cnc2ccccc2c1 [Compound F-26, N-[(1R)-1-benzyl-3,3-difluoro-1-methyl-butyl]quinoline-3-carboxamide] | ≥ 80 | ≥ 80 | ≥ 80 |  | ≥ 80 | ≥ 80 | ≥ 80 |  |  | 
